The target of one assay is T1, mouse PD-L1 (mPD-L1) (Mus musculus, UniProt Q9EP73).
T1 construct: The expression construct for mPD-L1 consisted of its extracellular domain (from A18 to H239) with a methionine added to the N-terminus; hexahistidine tag (C); made in house; host or cells: E. coli BL21 (DE3)
As to the kind of experiment: Radiolabeled [35S] peptide binding assay on mPD-L1. Particulars: [35S]-labeled peptide. As to the method:
SPAM Peptide Selectively Binds to hPD-L1. SPAM was also tested for binding specificity towards mouse PD-L1 (mPD-L1) and human PD-L2 (hPD-L2) using radioactive binding assays. SPAM peptide mRNA was translated in vitro in the presence of [^35S]-methionine to generate [^35S]-labeled SPAM peptide.
(§1) [^35S]-labeled peptides were translated as described above by including 2 μCi labeled methionine (Perkin Elmer) per 10 pmol of template in the translation reaction. Each peptide was tested with a […] (for X9-library derived peptides) (SEQ ID NO: 11) or a […] (for X17-library derived peptides) (SEQ ID NO: 12) C-terminal sequence. […] The supernatant was removed and was counted. The beads were subsequently washed three times with 1 mL of blocking buffer and the washes were also counted. Finally, the beads were resuspended in 1 mL of blocking buffer and were counted separately. The ratio of the counts remaining on the beads to the total counts added to the binding reaction (the sum of the counts for supernatant, washes, and beads) was calculated to determine the percent bound.

The next assay concerns the target T2, hPD-L1/mPD-1 interaction (Homo sapiens, UniProt Q9NZQ7).
T2 construct: designed from A18 to T239 with a methionine added to the N-terminus; hexahistidine tag (C); made in house; host or cells: E. coli BL21 (DE3)
As to the kind of experiment: ELISA/IP assay of hPD-L1/mPD-1 interaction. The assay is classed as biochemical. The conditions noted are these: 10 μM SPAM. How it is done:
An ELISA-based activity assay was employed to measure the potency of SPAM peptide inhibition of the hPD-L1/PD-1 interaction (FIG. 4C-D). In this assay, biotinylated hPD-L1 was immobilized on streptavidin magnetic beads and incubated with various concentrations of SPAM peptide, followed by incubation with HA-tagged mPD-1 and detection with anti-HA secondary antibody.
For ELISA/IP assays, 20 L of MyOne™ Streptavidin T1 magnetic beads Dynabeads™ (Thermo Fisher Scientific) were loaded with 100 nM biotinylated hPD-L1 in assay buffer (20 mM HEPES-KOH pH 7.5, 150 mM NaCl, 0.2% (v/v) Tween-20, 1 mg/mL BSA and 50 μg/mL tRNA) at 4° C. The beads were subsequently washed and incubated with either DMSO or different concentrations of SPAM peptide (0.1, 1 or 10 μM) in the assay buffer for 1 h at 4° C. followed by adding HA-tagged mPD-1 (100 nM) for 1 h at 4° C. The samples were then washed and incubated with a 1:5,000 dilution of HRP conjugated anti-HA antibody (Pierce HA Antibody, Rockford. Il, USA) for 1 h at 4° C. The beads were washed again and developed with TMB Substrate Kit (Thermo Scientific) for 30 minutes and the reactions stopped by adding 100 L of […] sulfuric acid. The absorbance at 450 nm was measured on a Biotek Synergy H1 Hybrid Multi-Mode Microplate Reader.
For orientation: ELISA stands for enzyme-linked immunosorbent assay.

Assay [1] deals with T3, CHO-mPD-L1 cells which express mPD-L1 (Mus musculus, UniProt Q9EP73).
T3 construct: expressed in transfected cells; host or cells: CHO
T3 sequence (Q9EP73 19-290): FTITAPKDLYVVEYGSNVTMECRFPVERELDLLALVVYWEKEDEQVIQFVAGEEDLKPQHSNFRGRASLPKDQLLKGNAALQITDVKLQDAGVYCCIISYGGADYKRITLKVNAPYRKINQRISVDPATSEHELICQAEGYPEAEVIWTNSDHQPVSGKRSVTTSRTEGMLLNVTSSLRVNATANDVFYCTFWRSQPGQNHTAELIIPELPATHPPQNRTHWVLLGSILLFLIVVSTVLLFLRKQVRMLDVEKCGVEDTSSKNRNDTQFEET
In words: Antibody competition by flow cytometry on CHO-mPD-L1 cells. The format is cell-based. Particulars: pre-treatment 0-20 μM, 50 nM antibody. How it is done: We performed similar experiments with CHO-mPD-L1 cells which express mPD-L1 to determine if this effect was specific to hPD-L1 expression. We have developed two cross-reactive anti-hPD-L1/mPD-L1 antibodies, 16373 and 16377. These antibodies were labeled with Fluorescein, titrated against CHO-hPD-L1 and CHO-mPD-L1 cells (FIG. 12B-C) and subjected to competition experiments as described above.
The cells were washed once with cold serum free DMEM and incubated with 1 nM FAM-Atezolizumab, 10 nM FAM-Avelumab, 50 nM FAM-16373, or 50 nM FAM-16377 in serum free DMEM at 4° C. for 30 min. Cells were then washed three times with cold serum free DMEM. Cells were subsequently processed by flow cytometry with a BD FACSCalibur system using the FL1 channel. FlowJo v10.1 was used to gate to the major population and median FL1 fluorescence reported.
Background: In flow cytometry, cells or beads pass a laser one at a time.

In assay [2] the target is T4, hPD-L1 (Homo sapiens, UniProt Q9NZQ7). In words: Fluorescence polarization of ROX-labeled SPAM with hPD-L1. The format is binding. Also noted: designed from A18 to T239 with a methionine added to the N-terminus; hexahistidine tag (C); made in house. As to the method:
To evaluate the affinity of SPAM for hPD-L1 and hPD-L1*, we measured the KD by fluorescence polarization. […] The resulting values were plotted against the concentration of hPD-L1 or hPD-L1* and fit to a one-site saturation binding model with GraphPad Prism.
A stock solution of hPD-L1 or hPD-L1* with a 5 μM starting concentration was prepared and serially diluted to concentrations ranging from 5 μM to 2.4 nM. […] The fluorescence polarization of each sample was measured on a Synergy H4 Hybrid Multi-Mode Microplate Reader. Each measurement was carried out in triplicate and the mean value was calculated. The values were fit to a one-site saturation binding model in GraphPad Prism to obtain the corresponding equilibrium dissociation constants.
(In general: In fluorescence polarisation assays a small probe gives low polarisation when free and higher when bound to something large.)

Assay [3] concerns the target T4, hPD-L1. As to the kind of experiment: Radiolabeled [35S] peptide binding assay on immobilized hPD-L1. The conditions noted are these: hPD-L1 on streptavidin agarose. Also noted: designed from A18 to T239 with a methionine added to the N-terminus; hexahistidine tag (C); made in house. How it is done:
as §1

Entries after “also recorded” stand apart in the source; their conditions may differ. Like-named read-outs stand apart in the source and are kept apart here.

T1 sequence (Q9EP73 with tags, fused parts or gaps): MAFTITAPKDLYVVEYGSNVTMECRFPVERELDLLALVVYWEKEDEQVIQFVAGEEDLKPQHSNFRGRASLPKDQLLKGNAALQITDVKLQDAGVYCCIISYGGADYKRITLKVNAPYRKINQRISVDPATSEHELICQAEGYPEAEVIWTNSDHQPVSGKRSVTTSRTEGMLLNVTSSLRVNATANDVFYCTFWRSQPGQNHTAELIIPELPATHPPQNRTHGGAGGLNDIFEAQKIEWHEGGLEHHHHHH
T4 sequence (Q9NZQ7 with tags, fused parts or gaps): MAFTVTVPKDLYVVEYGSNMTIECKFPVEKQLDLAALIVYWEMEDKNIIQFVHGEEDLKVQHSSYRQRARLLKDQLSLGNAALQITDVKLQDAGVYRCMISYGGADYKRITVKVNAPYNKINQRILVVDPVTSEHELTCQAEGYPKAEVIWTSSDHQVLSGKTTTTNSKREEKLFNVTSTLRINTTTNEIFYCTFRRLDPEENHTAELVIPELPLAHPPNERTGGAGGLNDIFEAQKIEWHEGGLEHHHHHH
T2 sequence (Q9NZQ7 with tags, fused parts or gaps): as above

The Kd is the equilibrium constant for the complex coming apart. In the case of `C#CC[C@H](NC(=O)CNC(=O)[C@H](CO)NC(=O)[C@H](C)NC(=O)[C@H](Cc1ccc(O)cc1)NC(=O)[C@H](Cc1c[nH]cn1)NC(=O)[C@H](CC(C)C)NC(=O)[C@@H](NC(=O)[C@H](Cc1c[nH]c2ccccc12)NC(=O)[C@H](Cc1ccccc1)NC(=O)[C@H](CCCCN)NC(=O)[C@H](CC(N)=O)NC(=O)[C@H](CC(C)C)NC(=O)[C@@H](NC(=O)[C@H](Cc1c[nH]cn1)NC(=O)[C@H](CC(=O)O)NC(=O)[C@H](CC(C)C)NC(=O)[C@H](Cc1ccccc1)NC(=O)[C@@H](NC(=O)[C@@H]1CCCN1C(=O)[C@@H](N)CCSC)[C@@H](C)CC)[C@@H](C)CC)[C@@H](C)CC)C(N)=O` (stereo in doubt) [SPAM], at mouse PD-L1 (mPD-L1), the “binding to mPD-L1” value was “not pulled-down; also recorded: essentially no binding; also recorded: no significant binding”. Further, the “inhibition of mPD-1 binding to hPD-L1” value at hPD-L1/mPD-1 interaction is recorded as “almost completely disrupted; also recorded: almost completely inhibits”. In addition, the “blocking of Fluorescein-16373 and Fluorescein-16377 in CHO-mPD-L1 cells” value in assay [1] was “blocking was absent”. In addition, the Kd at hPD-L1 [2] (non-glycosylated hPD-L1, T=21° C., 100 nM ROX-SPAM, read-out: dissociation constant (KD) for hPD-L1) is 0.119 µM; at hPD-L1 [2] (range over glycosylated and non-glycosylated hPD-L1, read-out: KD for hPD-L1), 0.067 to 0.119 µM. In addition, on hPD-L1 [3], the “[35S]-labeled peptide pull-down by immobilized hPD-L1” value is given as “efficiently pulled-down”.

Source of the values: US12643935B2, “PD-L1 binding peptides” (UNIVERSITY OF SOUTHERN CALIFORNIA, priority 2020, dated 2026).
